Experimental findings from ChEMBL document CHEMBL2069253, “Dipeptidyl peptidase-4 inhibitor with β-amino amide scaffold: synthesis, SAR and biological evaluation” (Bioorg Med Chem Lett, 2012) are described below.

The structures appear in SMILES notation. Some results are limits rather than exact numbers.

The nature of data set [1]: Metabolic stability in dog liver microsomes assessed as compound remaining at 1 hr. It counts as ADME, Canis lupus familiaris, Microsome. The note with it: read-out: Stability.
The nature of data set [2]: Metabolic stability in human liver microsomes assessed as compound remaining at 1 hr. It counts as ADME, Microsome. The note with it: read-out: Stability.
A short description of data set [3]: Oral bioavailability in rat at 10 mg/kg. It counts as ADME, organism-based. The note with it: in vivo.
Data set [4] in a line: Protein binding in rat. It counts as ADME, organism-based. The note with it: plasma, read-out: PB (converted).
Data set [5] in a line: Stability in rat plasma assessed as compound remaining at 1 hr. The note with it: read-out: Stability. It counts as ADME, cell-free.
Data set [6] can be described thus: Solubility of the compound at pH 1-9. It counts as physicochemical. The note with it: buffer.
A short description of data set [7]: Metabolic stability in rat liver microsomes assessed as compound remaining at 1 hr. Format: ADME, Microsome. The note with it: read-out: Stability.
Data set [8] can be described thus: Stability in mouse plasma assessed as compound remaining at 1 hr. It counts as ADME, cell-free. The note with it: read-out: Stability.
Data set [9] in a line: Metabolic stability in mouse liver microsomes assessed as compound remaining at 1 hr. It counts as ADME, Microsome. The note with it: read-out: Stability.
The species entered for data set [10] is Mus musculus. The data set is described as follows: animal or person. The note with it: C57BL/6J, po, 2 h.
Description: Antidiabetic activity in po dosed C57BL/6J mouse assessed as reduction in glucose AUC administered prior to glucose challenge measured up to 120 mins
Data set [11] in a line: Cmax in rat at 10 mg/kg, po. It counts as ADME, organism-based. More on the design: dose 10 mg/kg, route oral. The note with it: in vivo.
Data set [12] is filed under the species Mus musculus. As to the kind of experiment: animal or person. The note with it: C57BL/6J, po, 1 h, read-out: INH.
Description: In vivo inhibition of DPP4 in C57BL/6J mouse at 10 mg/kg, po measured after 1 hr
The species entered for data set [13] is Mus musculus. The data set is described as follows: animal or person. The note with it: C57BL/6J, po, 1 h, read-out: INH. The source holds these as a separate data set.
Description: In vivo inhibition of DPP4 in C57BL/6J mouse at 3 mg/kg, po measured after 1 hr
Data set [14] is filed under the species Rattus norvegicus. As to the kind of experiment: animal or person. The note with it: Sprague-Dawley, Plasma, po, 6 h, read-out: INH.
Description: In vivo inhibition of DPP4 in Sprague-Dawley rat plasma at 10 mg/kg, po administered as single dose measured up to 6 hrs
The species entered for data set [15] is Mus musculus. The data set is described as follows: animal or person. The note with it: C57BL/6J, po, 1 h, read-out: INH. The source holds these as a separate data set.
Description: In vivo inhibition of DPP4 in C57BL/6J mouse at 1 mg/kg, po measured after 1 hr
The target of data set [16] is T1, Cytochrome P450 3A4 (Homo sapiens, UniProt P08684). As to the kind of experiment: Induction of CYP3A4 at 50 uM. It counts as ADME.
T1 sequence (P08684 whole entry): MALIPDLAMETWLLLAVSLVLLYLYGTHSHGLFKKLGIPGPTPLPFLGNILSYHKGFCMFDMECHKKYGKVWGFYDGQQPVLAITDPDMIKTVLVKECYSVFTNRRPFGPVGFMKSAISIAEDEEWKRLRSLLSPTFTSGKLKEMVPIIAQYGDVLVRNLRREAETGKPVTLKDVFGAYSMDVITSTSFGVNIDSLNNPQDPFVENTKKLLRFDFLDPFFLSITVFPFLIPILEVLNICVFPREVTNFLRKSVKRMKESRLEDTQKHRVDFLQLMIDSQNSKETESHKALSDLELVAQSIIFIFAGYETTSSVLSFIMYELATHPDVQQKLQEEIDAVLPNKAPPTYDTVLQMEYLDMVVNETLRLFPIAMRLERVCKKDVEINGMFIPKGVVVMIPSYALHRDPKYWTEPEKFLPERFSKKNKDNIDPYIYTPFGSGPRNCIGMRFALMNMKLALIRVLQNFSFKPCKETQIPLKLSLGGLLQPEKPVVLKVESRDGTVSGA
Data set [17] can be described thus: Protein binding in human. The note with it: plasma, read-out: PB (converted). It counts as ADME, organism-based.
The nature of data set [18]: Half life in rat at 10 mg/kg, po. It counts as ADME, organism-based. More on the design: dose 10 mg/kg, route oral. The note with it: in vivo.
For data set [19], the species on record is Rattus norvegicus. As to the kind of experiment: animal or person. The note with it: Sprague-Dawley, Plasma, po, 24 h, read-out: INH.
Description: In vivo inhibition of DPP4 in Sprague-Dawley rat plasma at 10 mg/kg, po administered as single dose measured after 24 hrs
Data set [20] in a line: Stability in human plasma assessed as compound remaining at 1 hr. Format: ADME, cell-free. The note with it: read-out: Stability.
Data set [21] in a line: Protein binding in mouse. Format: ADME, organism-based. The note with it: plasma, read-out: PB (converted).
For data set [22], the target named is T1, Cytochrome P450 3A4. The data set is described as follows: Inhibition of CYP3A4. It counts as ADME.
The species named for data set [23] is Mus musculus. The data set is described as follows: animal or person. The note with it: C57BL/6J, Plasma, po, 1 h, read-out: INH.
Description: In vivo inhibition of DPP4 in C57BL/6J mouse plasma at 10 mg/kg, po measured after 1 hr
Data set [24] has as its target T2, CYP3A4 (Homo sapiens, UniProt P08684). As to the kind of experiment: Inhibition of CYP3A4 at 1 uM. It counts as ADME.
The species entered for data set [25] is Mus musculus. The data set is described as follows: animal or person. The note with it: C57BL/6J, Plasma, po, 1 h, read-out: INH. This is another data set of the same source.
Description: In vivo inhibition of DPP4 in C57BL/6J mouse plasma at 0.3 mg/kg, po measured after 1 hr
For data set [26], the species on record is Mus musculus. As to the kind of experiment: animal or person. The note with it: C57BL/6J, Plasma, po, 1 h, read-out: INH. The source holds these as a separate data set.
Description: In vivo inhibition of DPP4 in C57BL/6J mouse plasma at 3 mg/kg, po measured after 1 hr
Data set [27] addresses T2, CYP3A4. The data set is described as follows: Inhibition of CYP3A4 at 3 uM. Format: ADME.
The target of data set [28] is T2, CYP3A4. As to the kind of experiment: Inhibition of CYP3A4 at 10 uM. It counts as ADME.
The target of another data set is Dipeptidyl peptidase 4 (Mus musculus, UniProt P28843). The data set is described as follows: Inhibition of mouse DPP4.
Sequence of Dipeptidyl peptidase 4 (P28843 whole entry): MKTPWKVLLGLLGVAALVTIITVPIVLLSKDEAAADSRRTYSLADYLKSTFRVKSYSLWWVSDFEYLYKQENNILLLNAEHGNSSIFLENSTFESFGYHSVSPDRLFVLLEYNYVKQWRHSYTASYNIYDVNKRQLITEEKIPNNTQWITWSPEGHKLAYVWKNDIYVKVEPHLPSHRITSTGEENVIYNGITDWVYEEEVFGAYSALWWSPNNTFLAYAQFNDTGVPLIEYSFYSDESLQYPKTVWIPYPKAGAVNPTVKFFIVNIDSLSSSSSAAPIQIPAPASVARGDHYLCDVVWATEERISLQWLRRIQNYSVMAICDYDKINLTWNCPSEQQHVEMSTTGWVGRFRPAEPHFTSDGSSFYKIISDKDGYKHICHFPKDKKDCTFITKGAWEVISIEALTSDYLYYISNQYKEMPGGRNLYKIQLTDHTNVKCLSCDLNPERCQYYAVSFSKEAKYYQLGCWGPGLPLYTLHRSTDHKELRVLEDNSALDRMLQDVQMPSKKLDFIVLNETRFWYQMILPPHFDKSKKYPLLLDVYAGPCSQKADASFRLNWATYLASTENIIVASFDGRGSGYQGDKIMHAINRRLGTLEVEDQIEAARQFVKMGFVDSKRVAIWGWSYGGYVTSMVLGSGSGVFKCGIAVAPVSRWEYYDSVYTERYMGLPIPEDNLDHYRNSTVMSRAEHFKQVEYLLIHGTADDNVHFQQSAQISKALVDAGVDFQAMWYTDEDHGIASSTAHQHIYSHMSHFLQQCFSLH
Data set [29] is filed under the species Mus musculus. The data set is described as follows: animal or person. The note with it: C57BL/6J, Plasma, po, 1 h.
Description: In vivo inhibition of DPP4 in po dosed C57BL/6J mouse plasma measured after 1 hr
The species named for data set [30] is Mus musculus. As to the kind of experiment: animal or person. The note with it: C57BL/6J, Plasma, po, 1 h, read-out: INH. This is another data set of the same source.
Description: In vivo inhibition of DPP4 in C57BL/6J mouse plasma at 1 mg/kg, po measured after 1 hr

T2 sequence (P08684 whole entry): as the sequence (P08684 whole entry) above

As for `N[C@@H](CC(=O)N1CCN(C(=O)c2ccccn2)CC1)Cc1cc(F)c(F)cc1F`, the remaining at 1 h in data set [1] is 88%; in data set [2], 89%; in [5], > 97%; in data set [7], 85%; in data set [8], > 97%; in [9] it was 79%. Also, the remaining at 1 h in data set [20] is 97%. The compound further yielded a bioavailability in [3] of 65.3%. For the same compound, the fraction unbound was 0.729 in [4], 0.497 in data set [17] and 0.557 in [21]. The solubility in [6] is > 10000 µg/mL. This compound also showed an ED30 in the data set filed under Mus musculus [10] of 0.38 mg/kg. Besides, in [11], the Cmax is 2030 ng/mL. Besides, the inhibition in vivo at 10 mg/kg came out at 84.6% in the data set listed under Mus musculus [12], 60% in the data set listed under Rattus norvegicus [14] and 30% in the data set filed under Rattus norvegicus [19]. For the same compound, the inhibition in vivo at 3 mg/kg in the data set listed under Mus musculus [13] was 59.1%. Further, the inhibition in vivo at 1 mg/kg in the data set filed under Mus musculus [15] was 32.5%. Besides, the Activity at Cytochrome P450 3A4 [16] was < 10%. The same compound gave a half-life in [18] of 4.74 h.

`N[C@@H](CC(=O)N1CCN(C(=O)c2ccc(OC(F)(F)F)cc2)CC1)Cc1cc(F)c(F)cc1F` displayed an IC50 on Cytochrome P450 3A4 [22] of 1 µM.

On Cytochrome P450 3A4 [22], `N[C@@H](CC(=O)N1CCN(C(=O)c2ccc(S(N)(=O)=O)cc2)CC1)Cc1cc(F)c(F)cc1F` yielded an IC50 of 1 µM.

`N[C@@H](CC(=O)N1CCN(C(=O)c2ccccc2)CC1)Cc1cc(F)c(F)cc1F` showed an IC50 against Cytochrome P450 3A4 [22] of 1 µM.

On Cytochrome P450 3A4 [22], `CN1CCN(c2ccc(C(=O)N3CCN(C(=O)C[C@H](N)Cc4cc(F)c(F)cc4F)CC3)cc2)CC1` gave an IC50 of 1 µM.

On to `N[C@@H](CC(=O)N1CCN(C(=O)c2cccc(C(=O)O)c2)CC1)Cc1cc(F)c(F)cc1F`, for which half-maximal inhibition on Cytochrome P450 3A4 [22] (IC50) was put at 1 µM.

As to `N[C@@H](CC(=O)N1CCN(C(=O)c2ccc(C(=O)O)cc2)CC1)Cc1cc(F)c(F)cc1F`, on Cytochrome P450 3A4 [22], the midpoint of inhibition, the IC50, lay at 1 µM.

On to `N[C@@H](CC(=O)N1CCN(C(=O)c2ccc(C(F)(F)F)cc2)CC1)Cc1cc(F)c(F)cc1F`, for which the IC50 at Cytochrome P450 3A4 [22] was 1 µM.

The compound `N[C@@H](CC(=O)N1CCN(C(=O)c2ccc(O)cc2)CC1)Cc1cc(F)c(F)cc1F` displayed an IC50 against Cytochrome P450 3A4 [22] of 1 µM.

With `N[C@@H](CC(=O)N1CCN(c2ccc(F)cc2F)CC1)Cc1cc(F)c(F)cc1F`, the inhibition in vivo at 10 mg/kg in the data set listed under Mus musculus [23] was found to be 85.9%. Also, on CYP3A4 [24], the inhibition at 1 µM worked out at 81.5%. The inhibition in vivo at 0.3 mg/kg in the data set filed under Mus musculus [25] was 33.8%. Further, in the data set listed under Mus musculus [26], the inhibition in vivo at 3 mg/kg amounted to 68.6%. The compound also gave an inhibition at 3 µM against CYP3A4 [27] of 94%. This compound yielded an inhibition at 10 µM against CYP3A4 [28] of 100%. Further, at Dipeptidyl peptidase 4, the IC50 came out at 0.0944 µM. Moreover, the ED50 in the data set filed under Mus musculus [29] was determined as 0.87 mg/kg. The inhibition in vivo at 1 mg/kg in the data set listed under Mus musculus [30] stood at 52.2%.

Consider `N[C@@H](CC(=O)N1CCN(C(=O)c2ccc(F)cc2)CC1)Cc1cc(F)c(F)cc1F`, for which the IC50 on Cytochrome P450 3A4 [22] was determined as 1 µM.
